Data on seven molecules can be found in PMC7265341, “Quantifying CDK inhibitor selectivity in live cells” (Nature Communications, 2020).

Molecules are shown by their SMILES. Values joined by “and” are separate entries in the source; they are usually repeats but may differ in a detail not shown here. Equal entries are not always repeated. Where two headings read alike, the source gives them in different places.

Experiment [1] relates to phospho-Rb (Ser 807/811). As to the kind of experiment: Endogenous phospho-Rb (Ser 807/811) Lumit immunoassay in MCF7 cells.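 On all read-outs here: Serum-starved cells exposed to compounds for 24 h with 25 ng/mL hEGF, then lysed, phospho-Rb detected by split-luciferase antibody pair luminescence.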 The experiment is classed as cell-based, human. To be noted: for IC50: Homo sapiens, MCF7 cells, Panel F pIC50 correlations; for Normalized pRB (%): Panel E.
In experiment [2] the target is CDK3/Cyclin E1 (Homo sapiens, UniProt Q00526). As to the kind of experiment: NanoBRET live-cell target engagement, CDK3-NanoLuc/Cyclin E1 in HEK-293. The class given is binding. (BRET reads energy transfer from a luciferase to a nearby fluorophore.)
Chain of CDK3/Cyclin E1 (Q00526 whole entry): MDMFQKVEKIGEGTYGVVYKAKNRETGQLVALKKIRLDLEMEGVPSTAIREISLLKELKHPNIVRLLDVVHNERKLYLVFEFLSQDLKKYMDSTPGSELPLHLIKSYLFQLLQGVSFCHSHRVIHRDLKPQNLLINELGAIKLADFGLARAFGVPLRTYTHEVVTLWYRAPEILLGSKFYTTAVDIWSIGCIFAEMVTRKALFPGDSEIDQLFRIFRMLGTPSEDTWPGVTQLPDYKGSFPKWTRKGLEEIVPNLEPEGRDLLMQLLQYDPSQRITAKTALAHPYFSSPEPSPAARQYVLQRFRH
Chain of CDK3/Cyclin E1 (P24864 whole entry partner): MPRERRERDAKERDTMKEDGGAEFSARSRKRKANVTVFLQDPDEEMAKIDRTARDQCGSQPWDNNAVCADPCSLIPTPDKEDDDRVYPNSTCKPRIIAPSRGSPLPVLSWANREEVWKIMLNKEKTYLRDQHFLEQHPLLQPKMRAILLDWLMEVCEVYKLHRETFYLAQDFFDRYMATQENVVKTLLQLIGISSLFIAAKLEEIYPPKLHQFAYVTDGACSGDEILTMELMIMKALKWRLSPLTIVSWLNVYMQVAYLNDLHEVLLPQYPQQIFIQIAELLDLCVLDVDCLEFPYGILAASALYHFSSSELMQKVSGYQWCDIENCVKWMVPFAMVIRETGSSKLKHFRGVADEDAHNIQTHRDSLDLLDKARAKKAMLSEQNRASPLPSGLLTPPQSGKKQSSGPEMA
Experiment [3] has as its target CDK2/Cyclin E1 (Homo sapiens, UniProt P24941). The experiment is described as follows: NanoBRET live-cell target engagement, CDK2-NanoLuc/Cyclin E1 in HEK-293. The experiment is classed as binding.
In experiment [4] the test system is all 21 human CDKs. As to the kind of experiment: Live-cell selectivity profile across all 21 CDK/cyclin complexes in HEK-293. The class given is binding. To be noted: live HEK-293; for IC50: remaining CDK family, read-out: Collateral CDK (potency).
The target in experiment [5] is CDK6/Cyclin D1 (Homo sapiens, UniProt Q00534). The experiment is described as follows: Target engagement analysis in MCF7 cells, NLuc-CDK6/Cyclin D1.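 Further: MCF7 cells transiently co-transfected with an NLuc-CDK6 fusion plasmid plus a Cyclin D1 expression plasmid.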 To be noted: Panel C. The class given is binding.
Chain of CDK6/Cyclin D1 (Q00534 whole entry, the tested form may be a part): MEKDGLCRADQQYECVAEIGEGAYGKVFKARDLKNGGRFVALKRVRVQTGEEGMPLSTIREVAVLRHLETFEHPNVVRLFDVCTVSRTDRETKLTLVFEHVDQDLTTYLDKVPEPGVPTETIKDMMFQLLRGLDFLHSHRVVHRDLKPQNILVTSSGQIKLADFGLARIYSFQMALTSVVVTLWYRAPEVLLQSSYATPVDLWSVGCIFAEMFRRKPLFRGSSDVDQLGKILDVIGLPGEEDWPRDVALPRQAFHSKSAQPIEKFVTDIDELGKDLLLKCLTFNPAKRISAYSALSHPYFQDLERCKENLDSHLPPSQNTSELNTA
Chain of CDK6/Cyclin D1 (P24385 whole entry partner, the tested form may be a part): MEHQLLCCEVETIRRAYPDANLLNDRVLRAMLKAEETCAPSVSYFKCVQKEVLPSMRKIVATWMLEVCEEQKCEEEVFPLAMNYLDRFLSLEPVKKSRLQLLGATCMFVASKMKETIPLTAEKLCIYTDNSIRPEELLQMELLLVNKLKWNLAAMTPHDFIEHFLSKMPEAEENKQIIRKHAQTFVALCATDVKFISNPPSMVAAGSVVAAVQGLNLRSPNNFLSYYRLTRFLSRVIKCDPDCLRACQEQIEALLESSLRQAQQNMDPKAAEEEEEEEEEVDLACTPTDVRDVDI
In experiment [6] the target is CDK4/Cyclin D1 (Homo sapiens, UniProt P11802). The experiment is described as follows: Target engagement analysis in MCF7 cells, NLuc-CDK4/Cyclin D1.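 Further: MCF7 cells transiently transfected to express NLuc-tagged CDK4 together with Cyclin D1, with the assay run in Opti-MEM medium.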 The note with it: Panel D. The class given is binding.
Chain of CDK4/Cyclin D1 (P11802 whole entry): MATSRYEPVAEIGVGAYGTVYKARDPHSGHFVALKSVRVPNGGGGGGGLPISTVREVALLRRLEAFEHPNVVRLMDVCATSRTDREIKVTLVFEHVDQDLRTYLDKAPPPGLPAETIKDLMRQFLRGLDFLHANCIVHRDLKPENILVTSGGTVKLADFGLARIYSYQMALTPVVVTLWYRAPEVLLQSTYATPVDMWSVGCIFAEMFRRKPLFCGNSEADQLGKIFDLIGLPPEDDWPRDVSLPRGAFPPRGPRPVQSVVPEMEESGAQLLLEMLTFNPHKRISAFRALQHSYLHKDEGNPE
Chain of CDK4/Cyclin D1 (P24385 whole entry partner): as the sequence (P24385 whole entry partner, the tested form may be a part) above
The mark [7] stands for this setting: LOG10([Compound]) (LOG10(µM)) 0.0457575.
Where [8] appears, read: LOG10([Compound]) (LOG10(µM)) 0.522879.
Setting [9] is: LOG10([Compound]) (LOG10(µM)) 1.
[10] abbreviates: LOG10([Compound]) (LOG10(µM)) -0.431364.
[11] abbreviates: LOG10([Compound]) (LOG10(µM)) -0.908485.
[12] abbreviates: LOG10([Compound]) (LOG10(µM)) -1.38561.
[13] abbreviates: LOG10([Compound]) (LOG10(µM)) -1.86273.
The mark [14] stands for this setting: LOG10([Compound]) (LOG10(µM)) -2.33985.
[15] abbreviates: LOG10([Compound]) (LOG10(µM)) -2.81697.
Where [16] appears, read: LOG10([Compound]) (LOG10(µM)) -3.29409.
The mark [17] stands for this setting: CDK3/E1, average of replicates, read-out: Inhibition at 10µM (%) Average.
Where [18] appears, read: CDK3/E1, read-out: Inhibition at 10µM (%) Replicate 1.
Where [19] appears, read: CDK3/E1, read-out: Inhibition at 10µM (%) Replicate 2.
[20] abbreviates: CDK2/E1, average of replicates, read-out: Inhibition at 10µM (%) Average.
[21] abbreviates: CDK2/E1, read-out: Inhibition at 10µM (%) Replicate 1.
[22] abbreviates: CDK2/E1, read-out: Inhibition at 10µM (%) Replicate 2.
Setting [23] is: average of experiments, read-out: CDK3/E1 Inhibition at 10µM (%).
Setting [24] is: independent experiment 1, read-out: CDK3/E1 Inhibition at 10µM (%).
Setting [25] is: independent experiment 2, read-out: CDK3/E1 Inhibition at 10µM (%).
[26] abbreviates: average of experiments, read-out: CDK2/E1 Inhibition at 10µM (%).
Where [27] appears, read: independent experiment 1, read-out: CDK2/E1 Inhibition at 10µM (%).
Setting [28] is: independent experiment 2, read-out: CDK2/E1 Inhibition at 10µM (%).

`CCN1CCN(Cc2ccc(Nc3ncc(F)c(-c4cc(F)c5nc(C)n(C(C)C)c5c4)n3)nc2)CC1` [Abemaciclib] had an IC50 in experiment [1] of 45.7 nM. The “Normalized pRB (%)” value in experiment [1] (setting [7]) is 13.6% and 13.3%; in experiment [1] (setting [8]) it was 24.5% and 23.6% and 23.2%; in experiment [1] (setting [9]) it was 20.9% and 22.5% and 21.5%; in experiment [1] (setting [10]), 18% and 19.1% and 18.8%; in experiment [1] (setting [11]) it was 36.6% and 37.6% and 36.8%; in experiment [1] (setting [12]) it was 61.8% and 62.2% and 61%. The “Normalized pRB (%)” value in experiment [1] (setting [13]) is 80.7% and 77.6% and 81.4%; in experiment [1] (setting [14]) it was 90.7% and 95% and 86.6%; in experiment [1] (setting [15]), 91.8% and 94.4% and 95%; in experiment [1] (setting [16]) it was 93.5% and 103% and 101.1%. Moreover, the inhibition at 10 µM in experiment [2] (setting [17]) was determined as 62.2%; in experiment [2] (setting [18]), 62.2%; in experiment [2] (setting [19]) it was 62.3%.

With `COc1cc(F)ccc1-c1ncnc(Nc2cccc(C[S@](C)(=N)=O)c2)n1` [Atuveciclib], the inhibition at 10 µM was 48.4% in experiment [2] (setting [17]); 47.3% in experiment [2] (setting [18]); 49.6% in experiment [2] (setting [19]); 41.7% in experiment [3] (setting [20]); 42.9% in experiment [3] (setting [21]); 40.5% in experiment [3] (setting [22]). The IC50 in experiment [4] is over 1000 nM.

On to `CCCCOc1c(C(=O)c2c(F)cc(C)cc2F)c[nH]c2nncc1-2` [BMS-265246], for which the inhibition at 10 µM in experiment [2] (setting [17]) amounted to 74%; in experiment [2] (setting [18]) it was 81.9%; in experiment [2] (setting [19]), 66%; in experiment [3] (setting [20]), 80.1%; in experiment [3] (setting [21]), 77.4%; in experiment [3] (setting [22]), 82.8%. Moreover, the IC50 in experiment [2] (CDK3/E1, read-out: IC50 (nM) Replicate 1) stood at 6.5 nM; in experiment [2] (CDK3/E1, read-out: IC50 (nM) Replicate 2), 14 nM; in experiment [2] (CDK3/E1, read-out: IC50 (nM) Replicate 3), 9.2 nM; in experiment [2] (live HEK-293, 2 h, mean ± S.E.M. (n=3) or mean (n=2), read-out: IC50 for CDK/cyclin complexes, CDK3/E1), 10 nM; in experiment [3] (CDK2/E1, n=3 average ± SEM, n=2 average to 2 significant figures, read-out: IC50 (nM) Average*) it was 22 ± 8 nM; in experiment [3] (CDK2/E1, read-out: IC50 (nM) Replicate 1) it was 29 nM. In addition, the IC50 stood at 31 nM in experiment [3] (CDK2/E1, read-out: IC50 (nM) Replicate 2) and 6.6 nM in experiment [3] (CDK2/E1, read-out: IC50 (nM) Replicate 3). Further, the “selectivity index for CDK8/19 over CDK1/2” value in experiment [4] is recorded as over 10 fold.

On to `CC(C)c1cnn2c(NCc3ccccc3)cc(NCCCCCCN)nc12` [BS-181], for which the inhibition at 10 µM was 58.3% in experiment [2] (setting [17]); 56.9% in experiment [2] (setting [18]); 59.7% in experiment [2] (setting [19]); 46.6% in experiment [3] (setting [20]); 49.2% in experiment [3] (setting [21]); 44% in experiment [3] (setting [22]). Further, the IC50 in experiment [4] is over 1000 nM.

On to `CN1C/C=C/CCOc2cccc(c2)-c2ccnc(n2)Nc2cccc(c2)C1` [SB1317], for which the inhibition at 10 µM in experiment [2] (setting [23]) is 97.1%; in experiment [2] (setting [24]), 98.4%; in experiment [2] (setting [25]), 95.9%; in experiment [3] (setting [26]) it was 96.5%; in experiment [3] (setting [27]), 98%; in experiment [3] (setting [28]) it was 95%. Besides, the IC50 in experiment [2] (average (± SEM where n=3), read-out: CDK3/E1 IC50) amounted to 44 nM; in experiment [2] (independent experiment 1, read-out: CDK3/E1 IC50), 45 nM; in experiment [2] (independent experiment 2, read-out: CDK3/E1 IC50) it was 43 nM.

Take `CN(C)C/C=C/C(=O)Nc1ccc(C(=O)Nc2cccc(Nc3ncc(Cl)c(-c4c[nH]c5ccccc45)n3)c2)cc1` [THZ1]: the “CDK3/E1 Inhibition at 10µM (%)” value in experiment [2] (average of experiments) came to 55.0%; in experiment [2] (independent experiment 1), 14.7%; in experiment [2] (independent experiment 2), 95.2%. In addition, the “CDK2/E1 Inhibition at 10µM (%)” value in experiment [3] (average of experiments) was 16.1%; in experiment [3] (independent experiment 1) it was 27.6%; in experiment [3] (independent experiment 2), 4.6%.

For `CN1CCN(c2ccc(Nc3ncc4cc5n(c4n3)C3(CCCCC3)CNC5=O)nc2)CC1` [Trilaciclib], the IC50 in experiment [1] is 20.9 nM. The “Normalized pRB (%)” value was 9.9% and 10.9% and 11.1% in experiment [1] (setting [7]); 8.7% and 9.3% and 9.4% in experiment [1] (setting [8]); 9.1% and 9.9% and 10.7% in experiment [1] (setting [9]); 11.9% and 12.2% and 12.8% in experiment [1] (setting [10]); 21.1% and 21.7% and 21.4% in experiment [1] (setting [11]); 39.5% and 43.3% and 40.8% in experiment [1] (setting [12]). Moreover, the “Normalized pRB (%)” value in experiment [1] (setting [13]) is 65.2% and 69.5% and 71.9%; in experiment [1] (setting [14]), 95% and 98.6% and 94.8%; in experiment [1] (setting [15]), 103% and 105.2% and 103.9%; in experiment [1] (setting [16]) it was 100.3% and 111% and 109%. The inhibition at 10 µM in experiment [2] (setting [23]) is 2.3%; in experiment [2] (setting [24]) it was 3.5%; in experiment [2] (setting [25]), 1.1%; in experiment [3] (setting [26]), 0.461%; in experiment [3] (setting [27]) it was 1.5%; in experiment [3] (setting [28]) it was -0.535%. Further, the “CDK6 Target Occupancy” value in experiment [5] (setting [7]) is 101.609 and 102.011 and 101.117 and 100.76; in experiment [5] (setting [8]), 102.28 and 102.861 and 100.67 and 102.905; in experiment [5] (setting [9]), 101.52 and 101.564 and 101.073 and 101.654; in experiment [5] (setting [10]), 101.654 and 100.223 and 101.833 and 101.341; in experiment [5] (setting [11]), 100.715 and 100.045 and 100 and 101.028; in experiment [5] (setting [12]), 97.5863 and 94.6363 and 95.9772 and 97.2287. For the same molecule, the “CDK6 Target Occupancy” value in experiment [5] (setting [13]) was 90.9264 and 90.3453 and 90.1218 and 88.5574; in experiment [5] (setting [14]), 74.567 and 73.0473 and 71.5722 and 77.4723; in experiment [5] (setting [15]) it was 30.7185 and 35.6353 and 35.9482 and 37.7808. Besides, the “CDK4 Target Occupancy” value in experiment [6] (setting [7]) was 104 and 103.238 and 105.143; in experiment [6] (setting [8]), 109.905 and 105.81 and 108 and 106.476; in experiment [6] (setting [9]) it was 104.19 and 102.19 and 103.238 and 105.143; in experiment [6] (setting [10]), 107.333 and 104.381 and 108.571 and 104.286; in experiment [6] (setting [11]) it was 102.286 and 102.857 and 103.333 and 103.048; in experiment [6] (setting [12]) it was 103.238 and 101.524 and 101.714 and 103.81. For the same molecule, the “CDK4 Target Occupancy” value is 99.1429 and 96.1905 and 95.9048 in experiment [6] (setting [13]); 89.0476 and 92.4762 and 89.4286 in experiment [6] (setting [14]); 77.4286 and 74.7619 and 73.7143 and 67.1429 in experiment [6] (setting [15]); 58.1905 and 60.6667 and 56.5714 and 57.0476 in experiment [6] (setting [16]); 32.381 and 31.4286 and 33.3333 in experiment [6] (LOG10([Compound]) (LOG10(µM)) -3.77121).
